According to US7205140B2, “Nucleotide sequence for creatinine deiminase and method of use” (CampusGen GmbH, priority 2003, dated 2007):

How the values were obtained:
[1] = tested on: purified heterologously expressed creatinine deiminase from Tissierella creatinini; experiment: Interference studies: compound added to the reaction mixture, creatinine deiminase activity determined (coupled optical test); format: biochemical; details: for Maximum concentration without interference: compound added to standard reaction mixture, creatinine deiminase activity
Text: A technique for specifically measuring the creatinine concentration of a sample includes a simple indicator reaction step is provided, whereby no complicated auxiliary measurement reactions are necessary. […] Therefore, the subject creatinine deiminase polypeptide specifically and preferentially interacts with creatinine also in presence of other substrates with high specificity, without undue interference from other molecules which would otherwise compromise the accuracy of the measured value for the creatinine concentration in the sample.
(§1) The activity of the purified recombinant enzyme was determined using a modified enzymatic method developed by Bergmeyer (Bergmeyer, H. U. (1985), Methods of enzymatic analysis 8: 488–507). This method includes the measuring of free ammonia produced during a creatinine deiminase reaction via a coupled optical test, by measuring the […] of NADH consumed by the free ammonia at […] and/or 365 nm. The initial reaction comprised the following concentrations in a final volume of 0.6 ml: TEA buffer 0.11 mol/l, pH 8.6; creatinine 1.5 mmol/l; ADP 1.11 mmol/l; DTE 1 mmol/l; NADH 0.11 mmol/l; 2-oxoglutarate 11 mmol/l; glutamate dehydrogenase 8 U/ml. After incubating the reaction components (5 min at 37° C.), 0.01 ml of the purified recombinant enzyme was transferred to a cuvette and placed into a photometer for observing the extinction acceptance reaction at 340 nm. One enzyme unit was determined to catalyze the degrading of 1 μmol creatinine/min at 37° C.
A series of interference studies was performed using the purified and expressed creatinine deiminase polypeptide in the presence of the different serum compounds. The compound was provided to the standard reaction mixture and the creatinine deiminase activity was determined using the methods described above.

[2] = Storage stability of the purified enzyme in dialysis buffer; format: physicochemical; details: in the dialysis buffer for several months
Method: These samples were dialyzed using several rounds of fresh buffer (0.05 mol/l potassium phosphate, pH 7.65/glycerine, 1:2 v/v) at 4° C. until ammonia could no longer be detected.
The purified enzyme remained stable in the dialysis buffer for several months, experiencing a loss of activity of 9.1%. The optimal pH value for the purified enzyme, when suspended in phosphate and TEA buffers, was within the range of 8.5–8.75, with maximum activity measured at 47° C.

[3] = Enzyme activity of recombinant creatinine deiminase (coupled optical test / Jaffé method); format: biochemical
Method: The heterologous expression of an active creatinine deiminase derived from T. creatinini in E. coli (from the recombinant cell extract) was analyzed using gel electrophoresis (FIG. 8) and by determining the enzymatic activity in the cell-free raw extracts. […] Additionally, a band for the purified creatinine deiminase appeared at this same distance of 300 kDa (see FIG. 8, lanes 3 and 5), and likewise a similar band appeared in the raw extract of T. creatinini (FIG. 8, lane 2). The predicted size for creatinine deiminase (300 kDa) is well within range of the known value (288 kDa) as determined by Gottschalk et al. 1991 (supra). The specific activity of the recombinant creatinine deiminase in the cell-free extract was determined to be about 10.2 U/mg.
Heterologous sequences expressing creatinine deiminase (EC 3.5.4.21), as derived from T. creatinini, were also purified according to methods described by Gottschalk et al. 1991 (supra). The creatinine deiminase protein was purified from 5 g of cells using ammonium sulphate precipitation and chromatography to apparent homogeneity using phenylsepharose and DEAE-Sepharose CL6B (see FIG. 9). The specific activity of the purified recombinant enzyme was determined to be 1423 U/mg (see Table 2). The enzyme was suspended in a potassium phosphate buffer (KPP; pH 7.65, 50% Glycerin) and stored at −20° C. in. The purification steps are described as follows:
as §1

## NS(=O)(=O)c1cc(C(=O)O)c(NCc2ccco2)cc1Cl [Fuoresemide]
[1]
  Maximum concentration without interference: 4433 mg/L

## N[C@@H](Cc1c[nH]cn1)C(=O)O [Histidine]
[1]
  Maximum concentration without interference: 2250 mg/L

## CC(=O)CC(=O)O [Acetoacetate]
[1]
  Maximum concentration without interference: 7.8 mg/L

## Nc1cc[nH]c(=O)n1 [Cytosine]
[1]; as stated in the text for Table 1
  concentration without any interference: up to 2000 mg/ml
[1]
  Maximum concentration without interference: 2000 mg/L

## CC(C)=O [Acetone]
[1]
  Maximum concentration without interference: 2000 mg/L

## NC[C@H](O)c1ccc(O)c(O)c1 [Norepinephrine]
[1]
  Maximum concentration without interference: 1.5 mg/L

## CC(=O)O [Acetic acid]
[1]
  Maximum concentration without interference: 200 mg/L

## C[C@H](CS)C(=O)N1CCC[C@H]1C(=O)O [Captopril]
[1]
  Maximum concentration without interference: 83 mg/L

## O=C(O)c1cc(/N=N/c2ccc(S(=O)(=O)Nc3ccccn3)cc2)ccc1O [Salazosulphapyridine]
[1]
  Maximum concentration without interference: 550 mg/L

## CNC[C@H](O)c1ccc(O)c(O)c1 [Epinephrine]
[1]
  Maximum concentration without interference: 0.05 mg/L

## CN[C@H](CC(C)C)C(=O)N[C@H]1C(=O)N[C@@H](CC(N)=O)C(=O)N[C@H]2C(=O)N[C@H]3C(=O)N[C@H](C(=O)N[C@H](C(=O)O)c4cc(O)cc(O)c4-c4cc3ccc4O)[C@H](O)c3ccc(c(Cl)c3)Oc3cc2cc(c3O[C@@H]2O[C@H](CO)[C@@H](O)[C@H](O)[C@H]2O[C@H]2C[C@](C)(N)[C@H](O)[C@H](C)O2)Oc2ccc(cc2Cl)[C@H]1O [Vancomycin]
[1]
  Maximum concentration without interference: 288 mg/L

## Cc1cc(NS(=O)(=O)c2ccc(N)cc2)no1 [Sulphamethoxazole]
[1]
  Maximum concentration without interference: 500 mg/L

## Nc1nc(=O)[nH]cc1F [5-Fluorocytosine]
[1]
  Maximum concentration without interference: 1000 mg/L

## Hemoglobin
[1]
  Maximum concentration without interference: 0 mg/L

## COc1cc(Cc2cnc(N)nc2N)cc(OC)c1OC [Trimethoprime]
[1]
  Maximum concentration without interference: 46 mg/L

## CN(CC(=O)O)C(=N)N [Creatine]
[1]
  Maximum concentration without interference: 2000 mg/L

## C[C@](N)(Cc1ccc(O)c(O)c1)C(=O)O [α-Methyl-Dopa]
[1]
  Maximum concentration without interference: 107 mg/L

## O=C(O)C(=O)O [Oxalic acid]
[1]
  Maximum concentration without interference: 400 mg/L

B1: recombinant creatinine deiminase: creatinine deiminase (EC 3.5.4.21) from Tissierella creatinini, heterologously expressed in E. coli; 406 amino acid polypeptide (protein, listed as Tissierella creatinini)
chain: MMKKFINAKIYKNNEATEILVEDGKIKEIGNNLADCKEVIDLGGKMVTPPYVDPHLHLDYVYTLAELGKTGAGSGTLFEAIEMWPVFKKTLTVESVKKLALKGVMDEVSQGVQHIRTHIDVTDPKFTGLKAMLEMKEELKDIVDIQIVSFPQQGMYTYKGGRELVEEALKMGADVVGGIPHYEPAREYGEMSVKATVELAMKYDKLIDVHCDETDDPQARFIELLNALVYLEGYGAKTSASHTCSFGSADDSYAYRMIDLFKKSKINFISNPTENAYLQGRHDTYPKRRGLTRVKEFMEHGINVAFAQDSINDPWYPMGNGNMMNILDNGIHLAQIMSPQDIEKDLDLITYNGARCLNIQDKYLLEVGKDSNFIVLNGDSPFDVIRNRANVLACVRKGEFYLSKNQ
[2]
  loss of activity: 9.1%
[3]; Lineweaver Burke plot analysis
  Km: 1100 µM
[3]; after phenylsepharose and DEAE-Sepharose CL6B
  specific activity of the purified recombinant enzyme: 1423 U/mg
[3]; cell-free extract of E. coli DH5α/pKT1
  specific activity in the cell-free extract: about 10.2 U/mg
[3]; in phosphate and TEA buffers
  optimal pH value: 8.5–8.75
[3]; per protein
  Vmax: 1467 U/mg
[3]; this enzyme preparation
  Vmax: 8.8 U/ml
